From US11214572B2, “7-site substituted pyrrole triazine compounds or pharmaceutically acceptable salts thereof, and preparation method thereof and uses thereof” (SHANGHAI INSTITUTE OF MATERIA MEDICA, CHINESE ACADEMY OF …, priority 2017, dated 2022)
Several values for one entry are separate records, joined by “and”; a condition that tells them apart may be missing. Identical values can stand only once. Like-named read-outs stand apart in the source and are kept apart here.

Key:
PI3Kβ = PI3Kβ (Homo sapiens, UniProt P42338); test: PI3K kinase activity, β isoform; details: for inhibition at 0.1 µM: read-out: IH (%) @ 100 nM, β;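 as to all read-outs here: kinase reaction containing 1% DMSO, read as an emission ratio, with inhibition scaled between the 0% and 100% control ratios. IC50 values come from a ten-point fourfold dilution series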
PI3Kβ, sequence (P42338 whole entry, canonical isoform): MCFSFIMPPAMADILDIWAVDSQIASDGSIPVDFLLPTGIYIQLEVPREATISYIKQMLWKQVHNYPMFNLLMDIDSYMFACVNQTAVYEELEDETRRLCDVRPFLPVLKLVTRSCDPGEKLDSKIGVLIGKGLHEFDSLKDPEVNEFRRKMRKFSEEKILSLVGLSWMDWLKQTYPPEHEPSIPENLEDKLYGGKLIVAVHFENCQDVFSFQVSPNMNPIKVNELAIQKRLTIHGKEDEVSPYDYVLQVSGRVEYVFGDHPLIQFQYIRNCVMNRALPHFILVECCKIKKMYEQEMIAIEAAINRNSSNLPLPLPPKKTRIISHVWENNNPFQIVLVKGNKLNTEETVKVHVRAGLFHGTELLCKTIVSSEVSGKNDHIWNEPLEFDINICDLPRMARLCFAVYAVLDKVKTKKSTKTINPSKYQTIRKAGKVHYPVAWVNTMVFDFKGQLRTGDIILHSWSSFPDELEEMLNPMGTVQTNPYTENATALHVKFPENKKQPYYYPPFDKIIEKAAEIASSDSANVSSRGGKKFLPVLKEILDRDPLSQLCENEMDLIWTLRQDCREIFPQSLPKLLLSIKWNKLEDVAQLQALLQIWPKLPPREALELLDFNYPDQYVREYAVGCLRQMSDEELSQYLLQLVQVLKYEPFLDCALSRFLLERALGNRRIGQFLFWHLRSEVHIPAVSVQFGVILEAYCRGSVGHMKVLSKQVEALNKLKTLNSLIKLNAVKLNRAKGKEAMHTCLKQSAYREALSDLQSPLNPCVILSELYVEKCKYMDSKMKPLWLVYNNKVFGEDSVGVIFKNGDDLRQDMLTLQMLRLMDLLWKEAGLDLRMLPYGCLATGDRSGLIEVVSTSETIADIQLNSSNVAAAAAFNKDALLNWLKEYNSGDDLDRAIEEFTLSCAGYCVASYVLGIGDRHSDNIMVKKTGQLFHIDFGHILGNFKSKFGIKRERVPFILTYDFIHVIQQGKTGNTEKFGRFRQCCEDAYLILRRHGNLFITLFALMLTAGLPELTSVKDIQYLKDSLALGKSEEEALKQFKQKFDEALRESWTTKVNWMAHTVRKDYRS
PI3Kβ, sequence (P27986 whole entry partner, canonical isoform): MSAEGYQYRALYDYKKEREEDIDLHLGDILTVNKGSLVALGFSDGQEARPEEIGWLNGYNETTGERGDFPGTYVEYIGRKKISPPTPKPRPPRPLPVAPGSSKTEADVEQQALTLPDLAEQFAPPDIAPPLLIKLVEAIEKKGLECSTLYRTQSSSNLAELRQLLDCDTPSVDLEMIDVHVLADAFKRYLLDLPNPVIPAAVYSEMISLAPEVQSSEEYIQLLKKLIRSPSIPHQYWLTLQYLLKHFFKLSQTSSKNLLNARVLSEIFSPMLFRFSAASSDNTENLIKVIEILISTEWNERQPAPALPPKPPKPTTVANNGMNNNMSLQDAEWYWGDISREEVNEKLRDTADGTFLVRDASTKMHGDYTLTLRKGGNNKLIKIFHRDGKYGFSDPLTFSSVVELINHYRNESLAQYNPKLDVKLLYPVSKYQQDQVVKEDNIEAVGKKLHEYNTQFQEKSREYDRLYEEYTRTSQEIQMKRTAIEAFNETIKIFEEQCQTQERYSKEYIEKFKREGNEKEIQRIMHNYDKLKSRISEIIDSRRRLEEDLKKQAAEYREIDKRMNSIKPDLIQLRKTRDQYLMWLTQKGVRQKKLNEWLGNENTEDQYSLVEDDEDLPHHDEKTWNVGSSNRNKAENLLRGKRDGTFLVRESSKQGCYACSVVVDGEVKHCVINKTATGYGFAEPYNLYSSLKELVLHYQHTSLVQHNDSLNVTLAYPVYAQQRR
Description: (§6) Concentration setting for preliminary screening: the compounds to be tested were dissolved in DMSO (dimethyl sulfoxide) to 100 μM or 10 μM as storage solutions; for each one, 2 μL was taken to be added to 48 μL of 1× Reaction Buffer to obtain a 4 μM or 400 nM compound solution containing 4% DMSO. After well mixing, the mixture was diluted with 4% DMSO in 1× Reaction Buffer to obtain a 4 μM or 400 nM compound solution. 5 μL of each diluted solution was taken to be added to a 384-well plate, so that the final concentration of the compound in the final 20 μL of the kinase reaction system was 1 μM and 100 nM or 100 nM and 20 nM, respectively, and containing 1% DMSO.
(§7) The compounds to be tested were dissolved in DMSO to 1 mM or 10 mM as working solutions, 1 μL of each working solution was taken to be added to 24 μl of 1× Kinase Buffer A to obtain a 40 μM or 400 μM compound solution containing 4% DMSO. The compound solution was diluted by 4× gradient in sequence, 10 dilution concentrations.
(§8) Calculation of the Inhibition Rate • The inhibitory rate was calculated by the following formula: Inhibitory rate=(ERsample−ER0%)/(ER100%−ER0%)×100%

PI3Kα = PI3Kα (Homo sapiens, UniProt P42336); test: PI3K kinase activity, α isoform; details: for inhibition at 0.02 µM: read-out: IH (%) @ 20 nM, α
PI3Kα, sequence (P42336 whole entry, canonical isoform): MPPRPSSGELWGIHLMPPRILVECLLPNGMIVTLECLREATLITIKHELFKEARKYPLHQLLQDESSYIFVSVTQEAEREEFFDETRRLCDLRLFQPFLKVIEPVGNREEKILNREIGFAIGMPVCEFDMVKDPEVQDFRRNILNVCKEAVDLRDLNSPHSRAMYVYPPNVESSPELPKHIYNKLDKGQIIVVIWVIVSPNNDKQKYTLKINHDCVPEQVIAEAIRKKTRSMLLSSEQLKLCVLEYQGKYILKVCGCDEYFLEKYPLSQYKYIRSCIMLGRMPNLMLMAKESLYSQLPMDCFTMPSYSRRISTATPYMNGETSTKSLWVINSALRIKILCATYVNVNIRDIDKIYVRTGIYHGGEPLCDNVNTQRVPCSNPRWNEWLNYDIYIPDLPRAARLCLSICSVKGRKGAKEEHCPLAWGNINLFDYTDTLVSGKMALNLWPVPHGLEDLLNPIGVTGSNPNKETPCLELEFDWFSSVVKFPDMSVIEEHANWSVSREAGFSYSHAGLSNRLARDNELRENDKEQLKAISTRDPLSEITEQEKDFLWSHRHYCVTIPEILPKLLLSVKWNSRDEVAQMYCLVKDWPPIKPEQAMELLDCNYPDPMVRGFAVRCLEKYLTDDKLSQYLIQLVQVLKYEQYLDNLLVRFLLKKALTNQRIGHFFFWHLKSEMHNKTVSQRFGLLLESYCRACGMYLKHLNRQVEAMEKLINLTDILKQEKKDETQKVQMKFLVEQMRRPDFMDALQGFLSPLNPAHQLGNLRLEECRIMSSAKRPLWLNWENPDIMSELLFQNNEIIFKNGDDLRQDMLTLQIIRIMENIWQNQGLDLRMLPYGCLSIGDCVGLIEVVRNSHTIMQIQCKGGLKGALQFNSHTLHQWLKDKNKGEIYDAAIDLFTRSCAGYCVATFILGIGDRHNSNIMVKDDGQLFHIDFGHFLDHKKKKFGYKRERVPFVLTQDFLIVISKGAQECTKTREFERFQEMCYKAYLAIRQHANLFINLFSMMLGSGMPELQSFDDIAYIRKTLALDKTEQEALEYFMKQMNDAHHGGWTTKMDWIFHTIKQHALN
PI3Kα, sequence (P27986 whole entry partner, canonical isoform): as the sequence (P27986 whole entry partner, canonical isoform) above
Description: as §6, §7, §8

PI3Kδ = PI3Kδ (Homo sapiens, UniProt O00329); test: PI3K kinase activity, δ isoform; details: for inhibition at 0.02 µM: read-out: IH (%) @ 20 nM, δ
PI3Kδ, sequence (O00329 whole entry, canonical isoform): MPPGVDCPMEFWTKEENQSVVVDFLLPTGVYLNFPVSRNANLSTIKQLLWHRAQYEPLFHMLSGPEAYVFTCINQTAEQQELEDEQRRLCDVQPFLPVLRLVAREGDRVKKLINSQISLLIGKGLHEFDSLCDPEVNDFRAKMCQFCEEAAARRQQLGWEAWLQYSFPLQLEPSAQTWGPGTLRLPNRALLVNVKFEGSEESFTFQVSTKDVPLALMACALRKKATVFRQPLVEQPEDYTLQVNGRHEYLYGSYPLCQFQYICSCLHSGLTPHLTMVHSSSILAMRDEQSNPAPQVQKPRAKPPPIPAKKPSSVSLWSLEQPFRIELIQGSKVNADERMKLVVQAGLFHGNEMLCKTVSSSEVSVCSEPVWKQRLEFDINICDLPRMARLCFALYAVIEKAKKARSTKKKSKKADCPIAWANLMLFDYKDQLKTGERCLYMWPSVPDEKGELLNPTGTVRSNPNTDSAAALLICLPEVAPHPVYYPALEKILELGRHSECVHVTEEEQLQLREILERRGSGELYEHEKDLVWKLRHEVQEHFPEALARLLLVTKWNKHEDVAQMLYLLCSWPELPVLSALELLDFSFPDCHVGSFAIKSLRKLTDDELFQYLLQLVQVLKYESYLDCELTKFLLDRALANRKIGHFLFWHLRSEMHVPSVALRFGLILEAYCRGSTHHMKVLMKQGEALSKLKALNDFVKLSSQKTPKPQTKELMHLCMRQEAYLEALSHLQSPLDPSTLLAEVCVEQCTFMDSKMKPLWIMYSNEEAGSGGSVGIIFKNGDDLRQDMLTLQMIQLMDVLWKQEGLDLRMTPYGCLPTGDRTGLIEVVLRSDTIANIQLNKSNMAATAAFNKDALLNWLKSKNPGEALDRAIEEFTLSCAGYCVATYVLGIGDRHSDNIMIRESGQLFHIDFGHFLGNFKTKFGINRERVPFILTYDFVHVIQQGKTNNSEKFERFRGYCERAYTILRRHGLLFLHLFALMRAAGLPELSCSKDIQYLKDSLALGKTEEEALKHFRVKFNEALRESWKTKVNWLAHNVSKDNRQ
PI3Kδ, sequence (P27986 whole entry partner, canonical isoform): as the sequence (P27986 whole entry partner, canonical isoform) above
Description: as §6, §7, §8

PI3Kγ = PI3Kγ (Homo sapiens, UniProt P48736); test: PI3K kinase activity, γ isoform; format: biochemical; details: for inhibition at 0.1 µM: compound 100 nM, read-out: IH (%) @ 100 nM, γ;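 as to all read-outs here: kinase reaction run in 384-well plates, with inhibition normalised between the 0% and 100% reference reactions. IC50 derived from a ten-point, fourfold serial dilution series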
PI3Kγ, sequence (P48736 whole entry, canonical isoform): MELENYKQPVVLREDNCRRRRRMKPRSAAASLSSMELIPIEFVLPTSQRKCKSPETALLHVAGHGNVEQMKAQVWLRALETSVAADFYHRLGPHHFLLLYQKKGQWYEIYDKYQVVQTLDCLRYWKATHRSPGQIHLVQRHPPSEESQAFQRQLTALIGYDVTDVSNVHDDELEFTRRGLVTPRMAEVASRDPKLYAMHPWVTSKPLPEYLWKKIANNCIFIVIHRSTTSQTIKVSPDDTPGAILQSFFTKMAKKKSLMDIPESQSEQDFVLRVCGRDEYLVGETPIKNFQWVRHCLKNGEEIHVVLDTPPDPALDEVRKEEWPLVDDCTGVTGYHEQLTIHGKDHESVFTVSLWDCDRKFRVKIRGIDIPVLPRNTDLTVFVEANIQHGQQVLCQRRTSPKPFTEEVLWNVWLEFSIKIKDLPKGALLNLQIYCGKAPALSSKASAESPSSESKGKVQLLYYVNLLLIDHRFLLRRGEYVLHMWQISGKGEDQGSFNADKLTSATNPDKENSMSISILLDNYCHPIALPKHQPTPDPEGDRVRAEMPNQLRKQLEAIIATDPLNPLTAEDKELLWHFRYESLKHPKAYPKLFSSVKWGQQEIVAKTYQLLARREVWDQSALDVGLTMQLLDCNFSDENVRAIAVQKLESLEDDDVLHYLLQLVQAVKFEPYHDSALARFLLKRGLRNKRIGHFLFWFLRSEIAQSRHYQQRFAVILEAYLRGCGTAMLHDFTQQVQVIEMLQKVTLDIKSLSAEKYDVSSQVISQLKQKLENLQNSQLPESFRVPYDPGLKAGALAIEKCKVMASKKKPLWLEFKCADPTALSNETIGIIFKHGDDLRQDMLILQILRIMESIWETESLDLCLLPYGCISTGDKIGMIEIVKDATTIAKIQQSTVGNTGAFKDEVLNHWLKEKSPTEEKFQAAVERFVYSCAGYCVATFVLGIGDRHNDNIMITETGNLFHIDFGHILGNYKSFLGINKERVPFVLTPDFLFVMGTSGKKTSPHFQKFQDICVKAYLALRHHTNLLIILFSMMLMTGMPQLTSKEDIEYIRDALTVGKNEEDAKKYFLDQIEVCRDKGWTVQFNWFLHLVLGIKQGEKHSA
Description: as §6, §7, §8

[1] = Preliminary pharmacokinetic test, intravenous injection; format: in vivo, SD rats; details: 5 mg/kg, rats, intravenous injection 5 mg/kg, tested as monomesylate; for Vd: read-out: Vss
Description: (§1) 1. 14 healthy SD rats, male, weigh 200-220 g, were taken to be randomly divided into 4 groups, 3-4 in each group, and were administered the tested compound P-17 and compound CYH33 (compared with compound P-17, missing a methyl group on 7-position) via intragastric administration (10 mg/kg) and intravenous injection (5 mg/kg) respectively, the specific arrangements are shown in the following table 3:
(§2) The rats were fasted for 12 h before experiment, water was taken freely. The rats were fed 2 h after dosing.
Dosing via intravenous: 5 min, 0.25 h, 0.5 h, 1.0 h, 2.0 h, 4.0 h, 6.0 h, 8.0 h, and 24 h after dosing.
(§3) At the above setting time points, 0.3 ml of venous blood was taken from the retroorbital venous plexus of the rat, and placed in a heparinized test tube, centrifuged at 11,000 rpm for 5 min, then the plasma was separated, and frozen in a refrigerator at −20° C.
(§4) LC/MS/MS method was used to determine the concentration of the compounds in the plasma of rats.
(§5) The non-compartment model of Phoenix 1.3 software (Pharsight Corporation, USA) was used to calculate the pharmacokinetic parameters after dosing.

[2] = Preliminary pharmacokinetic test, intragastric administration; format: in vivo, SD rats; details: rats; for half-life: read-out: T½ (converted)
Description: as §1, §2
Dosing via intragastric administration: 0.25 h, 0.5 h, 1.0 h, 2.0 h, 3.0 h, 4.0 h, 6.0 h, 8.0 h, and 24 h after dosing.
as §3, §4, §5

[3] = male, SD, rat, plasma, iv, Mean
[4] = male, SD, rat, plasma, iv, individual animal

CS(=O)(=O)N1CCN(Cc2cc3c(N4CCOCC4)nc(-c4cnc(N)cc4C(F)(F)F)nn3c2Cl)CC1 [Compound P-11]
IC50 (PI3Kβ): 1440 nM | inhibition at 0.1 µM (PI3Kβ): 15.8% | IC50 (PI3Kα): 21.3 nM | inhibition at 0.02 µM (PI3Kα): 72.8% | IC50 (PI3Kδ): 28.1 nM | inhibition at 0.02 µM (PI3Kδ): 50.3% | IC50 (PI3Kγ): 248 nM | inhibition at 0.1 µM (PI3Kγ): 19.4%

Cc1c(CN2CCN(C(=O)C(C)(C)O)CC2)cc2c(N3CCOCC3)nc(-c3cnc(N)cc3C(F)(F)F)nn12 [Compound P-13]
inhibition at 0.1 µM (PI3Kβ): 2.34% | inhibition at 0.02 µM (PI3Kα): 30.5% | inhibition at 0.02 µM (PI3Kδ): 41.2% | inhibition at 0.1 µM (PI3Kγ): 2.16%

Cc1c(CN2CCN(C(=O)[C@H](C)O)CC2)cc2c(N3CCOCC3)nc(-c3cnc(N)cc3C(F)(F)F)nn12 [Compound P-14]
IC50 (PI3Kβ): 2650 nM | inhibition at 0.1 µM (PI3Kβ): 3.44% | IC50 (PI3Kα): 77.5 nM | inhibition at 0.02 µM (PI3Kα): 24.8% | IC50 (PI3Kδ): 85.6 nM | inhibition at 0.02 µM (PI3Kδ): 63.3% | IC50 (PI3Kγ): 1950 nM | inhibition at 0.1 µM (PI3Kγ): 6.83%

COC(=O)Nc1cc(C(F)(F)F)c(-c2nc(N3CCOCC3)c3cc(CN4CCN(S(C)(=O)=O)CC4)c(C)n3n2)cn1 [Compound P-17]
IC50 (PI3Kβ): 912 nM | inhibition at 0.1 µM (PI3Kβ): 16% | IC50 (PI3Kα): 76.2 nM | inhibition at 0.02 µM (PI3Kα): 60.7% | IC50 (PI3Kδ): 75.2 nM | inhibition at 0.02 µM (PI3Kδ): 64.1% | IC50 (PI3Kγ): 290 nM | inhibition at 0.1 µM (PI3Kγ): 47% | AUC(0-inf) [1, 3]: 3240 ng·h/mL | AUC(0-t) [1, 3]: 2990 ng·h/mL | clearance [1, 3]: 26.8 mL/min/kg | half-life [1, 3]: 2.1 h | MRT ([1]; male, SD, rat, plasma, iv, Mean, read-out: MRT): 2.71 h | Vd [1, 3]: 4.17 L/kg | AUC(0-inf) [1, 4]: 4190 ng·h/mL | AUC(0-t) [1, 4]: 3700 ng·h/mL | clearance [1, 4]: 19.8 mL/min/kg | half-life [1, 4]: 2.61 h | MRT ([1]; male, SD, rat, plasma, iv, individual animal, read-out: MRT): 3.53 h | Vd [1, 4]: 4.21 L/kg | AUC 0 − t ([1]; individual animal): 2564 ng·h/mL and 2711 ng·h/mL | AUC 0 − ∞ ([1]; individual animal): 2672 ng·h/mL and 2845 ng·h/mL | Cl ([1]; individual animal): 31.2 mL/min/kg and 29.3 mL/min/kg | MRT ([1]; individual animal): 2.13 h and 2.46 h | T1/2 ([1]; individual animal): 1.88 h and 1.82 h | Vss ([1]; individual animal): 3.98 L/kg and 4.33 L/kg | half-life ([2]; male, SD, rat, plasma, oral, 10 mg/kg, 10 mg/kg, Mean, monomesylate): 2.77 h | half-life ([2]; male, SD, rat, plasma, oral, 10 mg/kg, 10 mg/kg, individual animal, monomesylate): 3.08 h | AUC(0-inf) ([2]; male, SD, rat, plasma, oral, 10 mg/kg, Mean, monomesylate): 6120 ng·h/mL | bioavailability ([2]; male, SD, rat, plasma, oral, 10 mg/kg versus 5 mg/kg intravenous, monomesylate, read-out: F (absolute bioavailability)): 95.8% | steady-state distribution volume Vss, average residence time MRT, half-life T½ and absolute bioavailability F compared with CYH33 (in words) ([2]; monomesylates): improved

Cc1c(CN2CCN(S(C)(=O)=O)CC2)cc2c(N3CCOCC3)nc(-c3cnc(NC(=O)NC4CC4)cc3C(F)(F)F)nn12 [Compound P-20]
IC50 (PI3Kβ): 124 nM | inhibition at 0.1 µM (PI3Kβ): 57.4% | IC50 (PI3Kα): 10.8 nM | inhibition at 0.02 µM (PI3Kα): 102% | IC50 (PI3Kδ): 3.73 nM | inhibition at 0.02 µM (PI3Kδ): 83.1% | IC50 (PI3Kγ): 36.6 nM | inhibition at 0.1 µM (PI3Kγ): 68.3%

CCNC(=O)Nc1cc(C(F)(F)F)c(-c2nc(N3CCOCC3)c3cc(CN4CCN(S(C)(=O)=O)CC4)c(C)n3n2)cn1 [Compound P-21]
IC50 (PI3Kβ): 139 nM | inhibition at 0.1 µM (PI3Kβ): 46.3% | IC50 (PI3Kα): 21.8 nM | inhibition at 0.02 µM (PI3Kα): 89.3% | IC50 (PI3Kδ): 6.22 nM | inhibition at 0.02 µM (PI3Kδ): 107% | IC50 (PI3Kγ): 37.5 nM | inhibition at 0.1 µM (PI3Kγ): 74.1%

Cc1c(CN2CCN(S(C)(=O)=O)CC2)cc2c(N3CCOCC3)nc(-c3cnc(NC(=O)NC(C)C)cc3C(F)(F)F)nn12 [Compound P-22]
IC50 (PI3Kβ): 1540 nM | inhibition at 0.1 µM (PI3Kβ): 15.1% | IC50 (PI3Kα): 122 nM | inhibition at 0.02 µM (PI3Kα): 50% | IC50 (PI3Kδ): 29.5 nM | inhibition at 0.02 µM (PI3Kδ): 46.5% | IC50 (PI3Kγ): 311 nM | inhibition at 0.1 µM (PI3Kγ): 30.3%

Cc1c(CN2CCN(S(C)(=O)=O)CC2)cc2c(N3CCOCC3)nc(-c3cnc(NC(=O)Nc4ccc(F)cc4)cc3C(F)(F)F)nn12 [Compound P-23]
IC50 (PI3Kβ): 109 nM | inhibition at 0.1 µM (PI3Kβ): 32.6% | IC50 (PI3Kα): 18.7 nM | inhibition at 0.02 µM (PI3Kα): 77.9% | IC50 (PI3Kδ): 10.1 nM | inhibition at 0.02 µM (PI3Kδ): 77.1% | IC50 (PI3Kγ): 47.1 nM | inhibition at 0.1 µM (PI3Kγ): 67%

CS(=O)(=O)N1CCN(Cc2cc3nc(-c4cccc5[nH]ncc45)nc(N4CCOCC4)c3s2)CC1 [GDC0941, 2-(1H-indazol-4-yl)-6-[[4-(methylsulfonyl)-1-piperazinyl]methyl]-4-(4-morpholinyl)thieno[3,2-D]pyrimidine, reference compound]
inhibition at 0.1 µM (PI3Kβ): 21.1% | inhibition at 0.02 µM (PI3Kα): 41.7% | inhibition at 0.02 µM (PI3Kδ): 56.3%
